Square brackets hold non-standard residues; d marks the D form. Peptide text beside a SMILES is read from it. Dmt = Cc1cc(O)cc(C)c1C[C@H](N)C(=O)O
What was measured:
[1] = TEM / cryo-TEM fibre morphology of hydrogels; type: physicochemical; conditions: cryoTEM and negative staining, Example 9
Protocol: Formvar carbon-coated 400-mesh copper grids (Agar Scientific, Stansted, United Kingdom) were treated with plasma using an ELMO Glow discharge system to clean the grid surface and to render the carbon surface hydrophilic. Hydrogel samples were prepared 12 h in advance as described above. Small aliquots of sample (5 μL) were pipetted onto the carbon grids for adsorption. After 30 s, excess of sample was removed by using a Whatman 541 filter paper. The loaded grids were stained during 10 s with 1% uranyl formate after which the grids were air-dried. Samples were analysed using a JEOL JEM-1400 transmission electron microscope, operating at accelerating voltage of 120 kV. Images were recorded on a CMOS TemCam-F416 camera and accessory software of TVIPS.
200-mesh copper grids coated with perforated carbon film (Lacey carbon film: ProSci-Tech Old, Australia) were used and were glow discharged in nitrogen for 5 s immediately prior to use. Hydrogel samples were prepared 12 h in advance as described above. Small aliquots of sample (4 μL) were pipetted onto the carbon grids for adsorption. After 30 s, excess of sample was removed by using a Whatman 541 filter paper. The grid was then plunged into liquid ethane cooled by liquid nitrogen. Frozen grids were stored in liquid nitrogen until required. Samples were analysed using a Gatan 626 cryoholder and Tecnai 12 Transmission electron microscope, operating at accelerating voltage of 120 kV. Images were recorded using an FEI Eagle 4k×4k CCD camera.

[2] = Peptide gelation (tilted tube / inverted vial test, minimum gelation concentration); type: physicochemical; conditions: in PBS; '/' = no gel
How it was run: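 TFA salt of peptide dissolved (1 or 2 mg per 100 μL) in PBS pH 7.4 or 0.9% NaCl saline, vortexed and sonicated, then left overnight at room temperature. Gelation judged by inverted vial test: no gravitational flow means gel. Rheology by dynamic rheometry at 37° C (G′, G″, tan δ).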

[3] = 37° C., 9 μM
Protocol: Human plasma was obtained from the Belgian Red Cross (Vlaams-Brabant, Leuven). Prior to the stability test, selectivity, stability of the compound in the injection solvent, linearity, accuracy and precision of the method were investigated. Frozen (−20° C.) human plasma samples were thawed and thermostated to 37±2° C. Dissolution of the lyophilized peptide and consecutive dilutions were performed in water. The resulting aqueous solutions of each peptide individually was spiked in human plasma (10:90 v/v) with final plasma concentrations of 9 μM.
On every time point 100 μL spiked plasma was transferred to a 500 μL Eppendorf tube and a protein crash was performed using the corresponding precipitation solvent (4° C.). Suspensions were vortexed for 15 s and placed at 4° C. for 30 to 45 min. After centrifugation at 18 625 g for 20 min, 100 μL supernatant was diluted with 100 μL water in the injection vial.
Injection samples were vortexed for 5 sand placed in the autosampler. […] Concentrations were calculated by use of the calibration curve and transferred to a semi-log chart presenting the log concentrations as a function of time. The optimum curve was used to calculate the peptide half-life. Calculations were performed using Microsoft® Office Professional 2010 Excel.

[4] = Stability and degradability of biogels in human plasma (Example 8); type: in vitro ADME; conditions: human plasma, 37° C.
Protocol: After centrifugation at 14 000 rpm for 15 minutes, 100 μL supernatant was diluted with 100 μL milliQ water in the injection vial. Injection samples were vortexed for 5 seconds and were analyzed by HPLC. […] Calculations were performed using Microsoft® Office Professional 2010 Excel.

Male CD1 mice = assay: Radiant heat tail-flick test of biogel compositions s.c. (in solution or as a gel); type: in vivo, mouse; conditions: injection volume of 150 μl
Protocol: Male CD1 mice (6-8 weeks old, body weight average 30 g) were obtained from Charles River (Sulzfeld, Germany). Mice were group-housed in a temperature controlled room with a 12 h light/dark cycle and with free access to food and water. All animal studies were conducted in accordance with ethical guidelines and animal welfare standards according to Austrian regulations for animal research, and were approved by the Committee of Animal Care of the Austrian Federal Ministry of Science and Research. […]
The radiant heat tail-flick test was used to assess antinociceptive effects of tested drugs after s.c. administration in mice using an UB 37360 Ugo Basile analgesiometer (Ugo Basile s.r.l., Varese, Italy) as described previously (A. Novoa et al., 2012). The reaction time required by the mouse to remove its tail due to the radiant heat was measured and defined as the tail-flick latency. […] The antinociceptive response was expressed as percent of Maximum Possible Effect (% MPE)=[(TL-BL)/(cut-off time-BL)]×100. Data were analyzed with ANOVA using Tukey's multiple comparison test, and graphically processed with the GraphPad Prism Software (GraphPad Software Inc., San Diego, CA). […]

Row | SMILES | Fibre diameter [1] | Minimum gelation concentration (w/v % in PBS) [2] | Stability in human plasma [3] | Time at which degradation of the heptapeptide into the N-terminal pentapeptide started [4] | Time at which degradation of the pentapeptide into tripeptide was observed [4] | Time of appearance of the heptapeptide (loss of Phe-Lys-NH2) [4] | half-life at 14 μM ([4]; human, in solution, 14 μM) | Release profile as biogel in tail-flick test (Male CD1 mice)
1 | NCCCC[C@@H](N)C(=O)N[C@H](Cc1ccccc1)C(=O)N[C@H](CCC(N)=O)C(=O)N[C@H](Cc1ccccc1)C(=O)N[C@H](CCC(=O)O)C(=O)N[C@H](Cc1ccccc1)C(N)=O [peptide 24, H-DLys-DPhe-DGln-DPhe*-DGlu-DPhe-NH2] (H-[dK][dF][dQ][dF][dE][dF]-NH2) | ~5 nm | 2 w/v % | remains intact after 25 h of incubation |  |  |  |  | 
2 | Cc1cc(O)cc(C)c1C[C@H](N)C(=O)N[C@H](CCCNC(=N)N)C(=O)N[C@@H](Cc1ccccc1)C(=O)N[C@@H](Cc1ccccc1)C(=O)N[C@@H](CCC(N)=O)C(=O)N[C@@H](Cc1ccccc1)C(=O)N[C@@H](CCC(N)=O)C(=O)N[C@@H](Cc1ccccc1)C(=O)N[C@@H](CCCCN)C(N)=O [CM-57, Dmt-DArg-Phe-Phe-Gln-Phe*-Gln-Phe-Lys-NH2] (H-[Dmt][dR]FFQFQFK-NH2; N-terminus assumed) |  |  |  | 7.5 min | 60 min | 2.5 min | ~17 min | showed the desired sustained release curve

From patent US12383628B2 (priority 2016, dated 2025)
